Data: patent publication US7560106B2, “Rationally designed heparinases derived from heparinase I and II and methods of sequencing therewith” (Massachusetts Institute of Technology, priority 1998, dated 2009)
Positions count from the first letter of the chain named. Numbers in names are those of the source. Read-outs that look alike come from different tables or passages of the source.

What was measured:
heparinase II [1] = biological target: T1, heparinase II (Pedobacter heparinus, UniProt C6XZB6); assay: pCMB modification and inactivation of heparinase II; format: biochemical, Flavobacterium heparinum
T1 sequence (C6XZB6 26-772): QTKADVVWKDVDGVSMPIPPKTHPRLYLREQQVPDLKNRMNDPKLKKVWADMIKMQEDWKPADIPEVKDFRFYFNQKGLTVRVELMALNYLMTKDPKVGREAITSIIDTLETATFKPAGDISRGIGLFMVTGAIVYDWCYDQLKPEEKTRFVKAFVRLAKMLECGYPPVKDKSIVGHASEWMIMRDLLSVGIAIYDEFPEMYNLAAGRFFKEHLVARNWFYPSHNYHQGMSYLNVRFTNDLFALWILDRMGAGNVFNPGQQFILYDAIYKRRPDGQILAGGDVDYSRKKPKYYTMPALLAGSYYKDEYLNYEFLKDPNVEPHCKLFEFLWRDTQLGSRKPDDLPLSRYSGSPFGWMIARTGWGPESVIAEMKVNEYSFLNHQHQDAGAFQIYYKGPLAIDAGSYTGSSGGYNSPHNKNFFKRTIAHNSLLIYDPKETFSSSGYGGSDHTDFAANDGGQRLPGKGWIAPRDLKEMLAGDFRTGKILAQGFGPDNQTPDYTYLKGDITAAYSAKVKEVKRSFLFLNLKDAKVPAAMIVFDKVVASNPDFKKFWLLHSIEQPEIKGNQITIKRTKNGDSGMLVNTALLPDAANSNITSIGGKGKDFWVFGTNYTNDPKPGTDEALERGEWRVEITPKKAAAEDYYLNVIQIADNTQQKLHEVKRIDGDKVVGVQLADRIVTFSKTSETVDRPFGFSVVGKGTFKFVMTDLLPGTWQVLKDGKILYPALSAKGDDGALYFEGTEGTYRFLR
From the text: (§1) Heparinase II Activity Assay. Native heparinase II from Flavobacterium heparinum, was purified as described previously (Godavarti, R., and Sasisekharan, R (1996c) Biochem. Biophys. Res. Comm. 229, 770-777). The UV 232 nm assay to quantify native heparinase II enzymatic activity was similar to that reported for heparinase I (Bernstein, H., Yang, V. C., Cooney, C. L., Langer, R. (1988) Meth. Enzym. 137, 515-29). Briefly, the course of the reaction is monitored by measuring the increase in absorbance at 232 nm as a function of time under saturating substrate concentrations. With heparin as the substrate, the reaction was carried out at a concentration of 4 mg/ml in 50 mM sodium phosphate buffer, pH 7.3. With 2 mg/ml heparan sulfate, the reaction was measured in 50 mM sodium phosphate buffer, pH 6.9 (Sasisekharan, R., Moses, M. A., Nugent, M. A., Cooney, C. L., Langer, R. (1994) Proc. Natl. Acad. Sci., USA 91, 1524-1528). The temperature for all enzymatic activity measurements was kept constant at 35° C.
pCMB Modification Studies. […]. A control reaction mixture containing vehicle alone was run in tandem. At fixed time intervals, aliquots were withdrawn for the UV 232 nm enzyme activity assay.
(B) Reactivation of pCMB—modified heparinase II with DTT. Heparinase II (50 μg/ml) was incubated with 5 μM pCMB for 4 minutes and an aliquot was withdrawn to determine the fractional activity retained. DTT (10 mM) was then immediately added to the reaction mixture and to the control, which contained no pCMB. The mixtures were incubated at 4° C. Heparinase II activity was measured every half hour.
(C) Effect of salt on the inactivation of heparinase II by pCMB. Heparinase II was incubated with 5 μM pCMB in 50 mM sodium phosphate buffer, pH 7.0, with different salt concentrations (30, 60, 110, 180, 300, and 500 mM NaCl). A control mixture, which contained no additional salt, was also incubated with pCMB.
(D) Substrate protection of heparinase II against pCMB modification. Heparinase II (50 μg/ml) was preincubated with either 4 mg/ml heparin or 2 mg/ml heparan sulfate for 30 minutes prior to the addition of 5 μM pCMB and then the time course of inactivation was determined with the heparinase II activity assay.
(E) Quantification of pCMB—modified residues of heparinase II. Quantification of pCMB-modified residues of heparinase II was determined by difference spectra. […] The change in absorbance at 250 nm was monitored every 30 seconds for 10 minutes. The number of modified residues was determined using ∈=7,600 M^−1 cm^−1 (Boyer, P. D. (1952) J. Am. Chem. Soc. 76, 4331-4337). Heparinase II activity assays were completed under identical conditions with heparin as the substrate.
[…]. Less than 2% of total heparinase II enzymatic activity remained after this time interval. […]. Modified heparinase II was separated and concentrated. pCMB was removed via addition of DTT. [^3H]NEM was added to the reaction mixture; unreacted tritium was separated by RPHPLC and heparinase II was digested with Lys-C.

heparinase II [2] = biological target: T1, heparinase II; assay: DEPC inactivation of heparinase II and reactivation with hydroxylamine; format: biochemical, Flavobacterium heparinum; details: for kinact/KI: read-out: second-order rate constant of inactivation (converted); for initial activity recovered by DEPC-modified enzyme: 500 mM hydroxylamine
[3] = Heparin-POROS affinity chromatography; format: binding; details: salt concentration at which enzyme elutes from heparin-POROS column; 10 mM Tris, 1 mM EDTA pH 7.0
Protocol: Heparin-POROS chromatography: About 30-40 μg of -L r-heparinase I and the various mutant enzymes were injected into a heparin POROS (4.6 mm×100) column (PerSeptive BioSystems, Framingham, Mass.) connected to BioCAD system (PerSeptive BioSystems). Proteins were eluted using a linear gradient of […] NaCl in 10 min (10 mM Tris, 1 mM EDTA pH 7.0) and monitored at 210 nm. EDTA was added to chelate any calcium ions that may be present in the buffers.

[4] = Heparinase I UV 232 nm activity assay as a function of heparin concentration (Kcat, Km); format: biochemical, porcine; details: for Kcat / Km: heparin 0 to 4 mg/ml, 5 mM calcium acetate, pH 7.0; for Kcat: 100 mM MOPS
From the text: as §1
Heparinase I Activity Assay. The UV 232 nm assay to quantify heparinase I enzymatic activity was similar to that described in Example 1. With heparin as the substrate, the reaction was carried out at a concentration of 4 mg/ml in 100 mM MOPS, 5 mM calcium acetate, pH 7.0. The temperature for all enzymatic activity measurements was kept constant at 30° C. For the inactivation kinetic profiles, activity was measured as outlined above at precise time points.
(§2) Heparinase I Activity Assays: The UV 232 nm assay was used as described in Example 1. When measuring the enzyme activity as a function of heparin concentration, heparin concentrations varied from 0 to 4 mg/ml at a fixed calcium concentration of 5 mM (100 mM MOPS buffer/5 mM calcium acetate, pH 7.0). The data was then fit to an non-linear equation to determine Kcat and Km of heparinases I. Heparinase mutant activity was also investigated as a function of calcium concentration ranging from 0 to 10 mM. […] Activity is expressed as IU-μmol product formed/min using ∈=−3800-M^−1CM^−1.

[5] = Heparinase I activity as a function of calcium concentration (K0.5, calcium dependence); format: biochemical
Protocol: as §2

[6] = Fluorescence competition for calcium with probe rhod-5N; details: apparent dissociation constant of rhod-5N for calcium with 3 μM enzyme; lower Kd′ means less binding of calcium by heparinase I
Protocol: Fluorescence Competition. To determine the effect of mutations in CB-1 and CB-2 on the ability of heparinase I to bind calcium, mutants with a dramatic drop in activity were tested for their ability to bind calcium. To accomplish this, we examined the ability of heparinase I and mutants to compete for free calcium with the calcium-chelating fluorescence probe rhod-5N. The fluorescence probe rhod-5N was dissolved and diluted in buffer A (10 mM MOPS and 100 mM KCl, pH 6.5). Buffer A and the water used in the study were run through a Chelex Resin column to remove trace amounts of calcium. In the absence of calcium, rhod-5N is not fluorescent, however upon binding calcium rhod-5N is fluorescent with an emission λmax of 576 nm. Before titration, rhod-5N and heparinase I were added to a quartz cuvette such that the final concentration of rhod-5N in the cuvette was 0.3 μM and heparinase I is 3 μM. To this solution was added aliquots of a calcium solution (20 mM) which had been previously equilibrated with 0.3 μM rhod-5N and 3 μM heparinase I. The stock was added such that the calcium concentration in the cuvette was 50, 100, 200, 500, 1000, 5000 μM. After allowing the solution to come to equilibrium, the sample was scanned from 560 nm to 600 nm with the excitation wavelength fixed at […]. The plot of I/Imax versus [Ca^++] was fitted to a non-linear equation to determine the apparent Kd (Kd′) value. Thus, Kd′ values represent the apparent dissociation constants for the fluorescence probe rhod-5N. Control samples without heparinase I were included in the study.

[7] = calcium concentration at which half of the maximum enzyme activity was observed, calcium 0 to 10 mM, Table 4 first K0.5 column

For `O=C(O)c1cc[c]([Hg][Cl])cc1` [pCMB, p(chloromercuri)benzoate], the “time to complete inactivation of heparinase II” value (heparinase II [1]; 10 μM) was no more than 15 min, the loss of activity (heparinase II [1]; 20 μM pCMB) was 98% and the “number of cysteines modified” value (heparinase II [1]; 20 μM pCMB) was 1.06 cysteines. For the same molecule, the “first-order rate constant of inactivation” value (heparinase II [1]; 500 mM salt) was 0.06 min⁻¹, the “drop of first order rate constant of inactivation” value (heparinase II [1]; between 0 and 100 mM NaCl, 5 μM pCMB) was 2 fold and the “decrease of first order rate constant of inactivation” value (heparinase II [1]; between 0 and 300 mM NaCl, 5 μM pCMB) was “more than 4 fold”. The “k, first-order rate constant of inactivation” value (“k, first-order rate constant” for short) (heparinase II [1]; pH 5.0) was 0.16 min⁻¹, the “k, first-order rate constant” value (heparinase II [1]; pH 6.0) was 0.14 min⁻¹ and the “k, first-order rate constant” value (heparinase II [1]; pH 7.0) was 0.21 min⁻¹. For the same molecule, the “second-order rate constant for the inactivation” value (heparinase II [1]; pH 7.0, 4° C.) was 667 M⁻¹ s⁻¹, the “k, first-order rate constant” value (heparinase II [1]; pH 8.0) was 0.24 min⁻¹ and the “total heparinase II enzymatic activity remaining” value (heparinase II [1]; stoichiometric amount of pCMB, 15 minutes) was “Less than 2%”. For the same molecule, the “pCMB inactivation (Table 1 value)” value (heparinase II [1]; substrate heparan sulfate, protection reagent heparan sulfate) was 0.09, the “pCMB inactivation (Table 1 value)” value (heparinase II [1]; substrate heparan sulfate, protection reagent heparin) was 0.16 and the “pCMB inactivation (Table 1 value)” value (heparinase II [1]; substrate heparan sulfate, protection reagent none) was 0.21. For the same molecule, the “pCMB inactivation (Table 1 value)” value (heparinase II [1]; substrate heparin, protection reagent heparan sulfate) was 0.10, the “pCMB inactivation (Table 1 value)” value (heparinase II [1]; substrate heparin, protection reagent heparin) was 0.16 and the “pCMB inactivation (Table 1 value)” value (heparinase II [1]; substrate heparin, protection reagent none, 5 μM pCMB) was 0.22.

In the case of `CCOC(=O)OC(=O)OCC` [DEPC, diethylpyrocarbonate], the “loss of heparinase II enzymatic activity” value (heparinase II [2]; 2 mM DEPC, 10 minutes, towards heparin and heparan sulfate) is reported as 90%, the “number of histidines modified” value (heparinase II [2]; 2 mM DEPC, ten minutes, pH 7.0) is reported as “roughly three” and the kinact/KI (heparinase II [2]; heparan sulfate as the substrate) is reported as 4 M⁻¹ s⁻¹. It also gave a kinact/KI (heparinase II [2]; heparin as the substrate) of 2.67 M⁻¹ s⁻¹.

With `NO` [Hydroxylamine] the “initial activity recovered by DEPC-modified enzyme” value (heparinase II [2]; 8 hours, pH 7.0) was “about 90%”, the “initial activity recovered by DEPC-modified enzyme” value (heparinase II [2]; approximately 1.5 hours, pH 7.0, after inactivation to 50%) was “about 80%” and the “activity restored after DEPC modification” value (heparinase II [2]; pH 8) was “over 70%”.

B1: D212A/G213A/T216A: heparinase I CB-1 triple mutant (protein, UniProt Q05819 22-384, looked up, variant D212A G213A T216A)
Heparin lyase I: QQKKSGNIPYRVNVQADSAKQKAIIDNKWVAVGINKPYALQYDDKLRFNGKPSYRFELKAEDNSLEGYAAGETKGRTELSYSYATTNDFKKFPPSVYQNAQKLKTVYHYGKGICEQGSSRSYTFSVYIPSSFPDNATTIFAQWHGAPSRTLVATPEGEIKTLSIEEFLALYDRMIFKKNIAHDKVEKKDKAAKIAYVAGKPNGWKVEQGGYPTLAFGFSKGYFYIKANSDRQWLTDKADRNNANPENSEVMKPYSSEYKTSTIAYKMPFAQFPKDCWITFDVAIDWTKYGKEANTILKPGKLDVMMTYTKNKKPQKAHIVNQQEILIGRNDDDGYYFKFGIYRVGNSTVPVTYNLSGYSETAR
For B1, the NaCl [3] was 495 mM, the “decrease in Kcat compared to wild-type r-heparinase I” value [4] was roughly 5 fold and the Kcat [4] was 20 s⁻¹. It also gave a Km [4] of 3.16 µM, a K0.5 ([5]; Table 4 second K0.5 column) of 730 µM and a K0.5 [5, 7] of 730 µM. The Kd [6] was 116 µM.

B2: E381A/T382A: heparinase I CB-2 double mutant (protein, UniProt Q05819 22-384, looked up, variant E381A T382A)
Heparin lyase I: B1 Heparin lyase I with A191D, A192G, A195T, E360A, T361A
In the case of B2, the NaCl [3] is reported as 505 mM, the Kcat [4] is reported as 10 s⁻¹ and the Km [4] is reported as 1.75 µM. The K0.5 ([5]; Table 4 second K0.5 column) was 180 µM and the K0.5 [5, 7] was 180 µM.

B3: E381A: heparinase I CB-2 mutant, glutamate 381 changed to alanine (protein, UniProt Q05819 22-384, looked up, variant E381A)
Heparin lyase I: B1 Heparin lyase I with A191D, A192G, A195T, E360A
For B3, the NaCl [3] was 505 mM, the “decrease in Kcat compared to wild-type r-heparinase I” value [4] was “about 10 fold” and the Kcat [4] was 10 s⁻¹. For the same molecule, the Km [4] was 0.52 µM, the K0.5 ([5]; Table 4 second K0.5 column) was 180 µM and the K0.5 [5, 7] was 180 µM. The Kd [6] was 175 µM.
